Among the targets are DRB4*0101 (Homo sapiens, UniProt P01903+P13762, G164S); DRB5*0101 (Homo sapiens, UniProt P01903+Q30154); DRB3*0101 (Homo sapiens, UniProt P01903+P79483).
What all share (assay): biochemical
Holding throughout (assay type): binding

Here are results for 19 molecules from publication PMC3794980, “Identification of Conserved and HLA Promiscuous DENV3 T-Cell Epitopes” (PLoS Neglected Tropical Diseases, 2013).

Where no end group is shown, it is not given here.

As for `CC[C@H](C)[C@H](NC(=O)[C@H](C)NC(=O)CNC(=O)[C@@H](NC(=O)[C@H](CCC(=O)O)NC(=O)CNC(=O)[C@@H](NC(=O)[C@@H](NC(=O)[C@@H](NC(=O)[C@H](CCC(N)=O)NC(=O)[C@H](Cc1ccccc1)NC(=O)[C@@H](NC(=O)CNC(=O)[C@@H]1CCCN1)[C@@H](C)O)[C@@H](C)O)[C@@H](C)O)[C@@H](C)O)[C@@H](C)CC)C(=O)N[C@@H](C)C(=O)O` [NS3 113-127], the IC50 worked out at 1840 nM on DRB4*0101, 2100 nM on DRB5*0101 and 3070 nM against DRB3*0101.

Regarding `CC[C@H](C)[C@H](NC(=O)[C@H](CCSC)NC(=O)[C@H](CC(=O)O)NC(=O)[C@H](CO)NC(=O)[C@H](CCC(=O)O)NC(=O)[C@H](CC(C)C)NC(=O)[C@@H](NC(=O)CNC(=O)[C@H](CC(N)=O)NC(=O)[C@@H](N)CO)C(C)C)C(=O)N[C@H](C(=O)N1CCC[C@H]1C(=O)N[C@@H](CCCCN)C(=O)N[C@@H](CO)C(=O)N[C@@H](CC(C)C)C(=O)O)[C@@H](C)CC` [NS1 233-247], the figures for the IC50 against DRB4*0101, against DRB5*0101 and against DRB3*0101 were 3870 nM, 4070 nM and 159 nM, respectively.

Take `CC[C@H](C)[C@H](NC(=O)[C@H](Cc1ccc(O)cc1)NC(=O)CNC(=O)[C@H](CCCNC(=N)N)NC(=O)[C@H](C)N)C(=O)N[C@@H](CO)C(=O)N[C@H](C(=O)N[C@@H](CCCNC(=N)N)C(=O)N[C@H](C(=O)NCC(=O)N[C@@H](CCSC)C(=O)NCC(=O)N[C@@H](CCC(=O)O)C(=O)N[C@@H](C)C(=O)N[C@@H](C)C(=O)O)C(C)C)[C@@H](C)O` [NS3 297-311]: the IC50 worked out at 7230 nM against DRB4*0101, 3450 nM against DRB5*0101 and 8650 nM against DRB3*0101.

In the case of `CC(C)C[C@H](NC(=O)[C@H](Cc1ccccc1)NC(=O)CN)C(=O)N[C@@H](CC(N)=O)C(=O)N[C@@H](CCC(=O)O)C(=O)N[C@@H](CC(=O)O)C(=O)N[C@@H](Cc1c[nH]cn1)C(=O)N[C@@H](Cc1c[nH]c2ccccc12)C(=O)N[C@@H](Cc1ccccc1)C(=O)N[C@@H](CO)C(=O)N[C@@H](CCCNC(=N)N)C(=O)N[C@@H](CCC(=O)O)C(=O)N[C@@H](CC(N)=O)C(=O)N[C@@H](CO)C(=O)N[C@@H](Cc1ccc(O)cc1)C(=O)N[C@@H](CO)C(=O)NCC(=O)O` [NS5 489-505], the IC50 at DRB4*0101 was determined as 13900 nM; against DRB5*0101 it was 936 nM; against DRB3*0101, 387 nM.

As for `CC[C@H](C)[C@H](NC(=O)[C@H](CC(=O)O)NC(=O)[C@H](CCSC)NC(=O)[C@@H](N)C(C)C)C(=O)N[C@H](C(=O)N[C@@H](CO)C(=O)N[C@@H](CCCNC(=N)N)C(=O)N[C@@H](CCCCN)C(=O)N[C@@H](CC(=O)O)C(=O)N[C@@H](CCC(N)=O)C(=O)N[C@@H](CCCNC(=N)N)C(=O)NCC(=O)N[C@@H](CO)C(=O)NCC(=O)N[C@@H](CCC(N)=O)C(=O)N[C@H](C(=O)NCC(=O)O)C(C)C)[C@@H](C)CC` [NS5 588-604], the IC50 on DRB4*0101 turned out to be 6240 nM; on DRB5*0101 it was 17100 nM; on DRB3*0101, 4260 nM.

As for VTFKNAHAKKPEVVV [Envelope 236-250], the IC50 against DRB4*0101 is 6760 nM; at DRB5*0101 it was 30 nM; against DRB3*0101, 18200 nM.

For the molecule `CC(C)C[C@H](NC(=O)[C@H](CCCCN)NC(=O)CNC(=O)[C@H](CC(C)C)NC(=O)[C@@H](N)Cc1c[nH]cn1)C(=O)N[C@@H](CCC(=O)O)C(=O)N[C@@H](CC(C)C)C(=O)N[C@@H](CC(=O)O)C(=O)N[C@@H](Cc1ccccc1)C(=O)N[C@@H](CC(N)=O)C(=O)N[C@@H](Cc1ccc(O)cc1)C(=O)N[C@@H](CS)C(=O)N[C@@H](CCC(=O)O)C(=O)NCC(=O)N[C@H](C(=O)O)[C@@H](C)O` [NS1 269-283], the results for the IC50 against DRB4*0101, against DRB5*0101 and at DRB3*0101 were 85 nM, 9470 nM and 71 nM, respectively.

Turning to `CC[C@H](C)[C@H](NC(=O)[C@@H](NC(=O)[C@H](CCCCN)NC(=O)[C@H](CCCCN)NC(=O)CNC(=O)[C@H](CC(N)=O)NC(=O)[C@H](CCCCN)NC(=O)[C@H](CCCNC(=N)N)NC(=O)[C@H](CC(C)C)NC(=O)[C@H](CS)NC(=O)[C@H](CC(N)=O)NC(=O)[C@H](C)N)C(C)C)C(=O)N[C@@H](CCC(N)=O)C(=O)N[C@@H](CC(C)C)C(=O)N[C@@H](CO)C(=O)O` [NS3 373-387], the IC50 against DRB4*0101 stood at 1630 nM; at DRB5*0101 it was 3540 nM; against DRB3*0101, 3430 nM.

With `CC(C)C[C@H](NC(=O)[C@H](CCCNC(=N)N)NC(=O)[C@H](CCCCN)NC(=O)CNC(=O)[C@@H](N)CC(N)=O)C(=O)N[C@@H](CCC(=O)O)C(=O)N1CCC[C@H]1C(=O)N[C@@H](CC(N)=O)C(=O)N[C@@H](Cc1c[nH]c2ccccc12)C(=O)N[C@@H](C)C(=O)N[C@@H](CO)C(=O)N[C@H](C(=O)N[C@@H](CCCCN)C(=O)N[C@@H](CCCCN)C(=O)N[C@@H](CC(=O)O)C(=O)O)C(C)C` [NS3 61-75], the results for the IC50 at DRB4*0101, against DRB5*0101 and against DRB3*0101 were 7030 nM, 143 nM and 1200 nM, respectively.

In the case of `CC[C@H](C)[C@H](NC(=O)[C@@H](NC(=O)[C@H](CC(=O)O)NC(=O)[C@H](CCSC)NC(=O)[C@@H](NC(=O)[C@@H](NC(=O)CNC(=O)[C@H](CCCCN)NC(=O)[C@@H]1CCCN1C(=O)[C@@H](NC(=O)[C@@H]1CCCN1C(=O)[C@H](CCCNC(=N)N)NC(=O)[C@H](CCC(N)=O)NC(=O)[C@@H](NC(=O)[C@H](CCCCN)NC(=O)[C@@H](NC(=O)[C@@H](N)C(C)C)C(C)C)C(C)C)[C@@H](C)O)[C@@H](C)O)C(C)C)[C@@H](C)CC)C(=O)O` [NS5 576-592], the IC50 against DRB4*0101 is 108 nM; against DRB5*0101, 84 nM; against DRB3*0101 it was 2910 nM.

As for `CC[C@H](C)[C@H](N)C(=O)N[C@@H](CC(=O)O)C(=O)N[C@@H](CC(=O)O)C(=O)N[C@@H](CCCNC(=N)N)C(=O)N[C@@H](Cc1ccccc1)C(=O)N[C@@H](C)C(=O)N[C@@H](CC(N)=O)C(=O)N[C@@H](C)C(=O)N[C@@H](CC(C)C)C(=O)N[C@@H](CC(C)C)C(=O)N[C@@H](C)C(=O)N[C@@H](CC(C)C)C(=O)N[C@@H](CC(N)=O)C(=O)N[C@@H](CC(=O)O)C(=O)N[C@@H](CCSC)C(=O)NCC(=O)N[C@@H](CCCCN)C(=O)O` [NS5 670-686], the figures for the IC50 against DRB4*0101, against DRB5*0101 and against DRB3*0101 were 971 nM, 478 nM and 7500 nM, respectively.

On to `CC(C)C[C@H](NC(=O)[C@H](CCCCN)NC(=O)CNC(=O)[C@H](CO)NC(=O)[C@@H](NC(=O)[C@@H](NC(=O)[C@@H](NC(=O)[C@@H](NC(=O)[C@H](CCCNC(=N)N)NC(=O)[C@H](CC(C)C)NC(=O)[C@H](CO)NC(=O)[C@@H]1CCCN1C(=O)CNC(=O)[C@H](CCCNC(=N)N)NC(=O)[C@@H](N)[C@@H](C)O)[C@@H](C)O)[C@@H](C)O)[C@@H](C)O)C(C)C)C(=O)O` [NS1 293-307], for which the IC50 against DRB4*0101 worked out at 793 nM; against DRB5*0101, 2610 nM; on DRB3*0101, 2280 nM.

Turning to LKKEVSETQHGTILV [Envelope 306-320], the IC50 came out at 7860 nM against DRB4*0101, 12600 nM against DRB5*0101 and 12100 nM on DRB3*0101.

As to `CC[C@H](C)[C@H](NC(=O)[C@H](CCC(N)=O)NC(=O)[C@@H](N)CCCCN)C(=O)N[C@@H](C)C(=O)N[C@@H](CC(N)=O)C(=O)N[C@@H](CCC(=O)O)C(=O)N[C@@H](CC(C)C)C(=O)N[C@@H](CC(N)=O)C(=O)N[C@@H](Cc1ccc(O)cc1)C(=O)N[C@H](C(=O)N[C@@H](CC(C)C)C(=O)N[C@@H](Cc1c[nH]c2ccccc12)C(=O)N[C@@H](CCC(=O)O)C(=O)N[C@@H](CC(N)=O)C(=O)N[C@@H](CC(N)=O)C(=O)O)[C@@H](C)CC` [NS1 69-83], the IC50 against DRB4*0101 turned out to be 608 nM; at DRB5*0101, 2380 nM; on DRB3*0101, 50 nM.

On to `CC[C@H](C)[C@H](NC(=O)[C@H](CC(C)C)NC(=O)[C@H](CCCCN)NC(=O)CNC(=O)[C@H](CO)NC(=O)[C@@H](NC(=O)[C@@H](NC(=O)[C@@H](NC(=O)[C@@H](NC(=O)[C@H](CCCNC(=N)N)NC(=O)[C@H](CC(C)C)NC(=O)[C@@H](N)CO)[C@@H](C)O)[C@@H](C)O)[C@@H](C)O)C(C)C)C(=O)N[C@@H](Cc1c[nH]cn1)C(=O)N[C@@H](CCC(=O)O)C(=O)N[C@@H](Cc1c[nH]c2ccccc12)C(=O)O` [NS1 297-311], for which the IC50 came out at 5310 nM on DRB4*0101, 2110 nM at DRB5*0101 and 12400 nM at DRB3*0101.

As for TRGAVLTYNGKRLEP [NS3 53-67], the IC50 against DRB4*0101 was 11500 nM; at DRB5*0101, 329 nM; on DRB3*0101, 3290 nM.

In the case of AILPEYGTLGLECSP [Envelope 171-185], the results for the IC50 against DRB4*0101, against DRB5*0101 and against DRB3*0101 were 787 nM, 17200 nM and 12600 nM, respectively.

For `CC[C@H](C)[C@H](NC(=O)[C@@H](N)CCCCN)C(=O)N[C@H](C(=O)N[C@@H](CCC(N)=O)C(=O)N[C@@H](Cc1c[nH]c2ccccc12)C(=O)N[C@@H](CC(C)C)C(=O)N[C@@H](CCC(=O)O)C(=O)N[C@H](C(=O)N[C@@H](CCCCN)C(=O)NCC(=O)N[C@H](C(=O)N[C@@H](CCC(=O)O)C(=O)N[C@@H](CCCNC(=N)N)C(=O)N[C@@H](CC(C)C)C(=O)N[C@@H](CCCCN)C(=O)N[C@@H](CCCNC(=N)N)C(=O)N[C@@H](CCSC)C(=O)O)C(C)C)[C@@H](C)O)[C@@H](C)O` [NS5 642-658], the IC50 on DRB4*0101 is 15300 nM; against DRB5*0101, 5.1 nM; on DRB3*0101, 12200 nM.

For the molecule `CC(C)[C@H](NC(=O)[C@@H]1CCCN1C(=O)[C@@H](NC(=O)[C@H](C)NC(=O)[C@H](CO)NC(=O)[C@@H](N)CS)C(C)C)C(=O)N[C@@H](Cc1c[nH]cn1)C(=O)N[C@@H](Cc1c[nH]c2ccccc12)C(=O)N[C@H](C(=O)N1CCC[C@H]1C(=O)N[C@H](C(=O)N[C@@H](CO)C(=O)N[C@@H](CCCNC(=N)N)C(=O)N[C@H](C(=O)N[C@H](C(=O)N[C@@H](Cc1c[nH]c2ccccc12)C(=O)O)[C@@H](C)O)[C@@H](C)O)[C@@H](C)O)C(C)C` [NS5 780-795], the IC50 is 168 nM on DRB4*0101, 1950 nM on DRB5*0101 and 2340 nM against DRB3*0101.
